Where two headings read alike, the source gives them in different places.

Assay [1] relates to HSV-1 strain F or KOS. The assay can be described thus: Inhibition of herpes simplex virus (HSV-1) replication in cell culture (BHK-21 cells, glycoprotein C ELISA). In kind it is cell-based. The essentials: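 BHK-21 clone 13 cells infected with HSV-1 F or KOS at MOI 0.05 PFU/cell for 1 h at 37°, washed, then treated with compound in α-MEM/2% FBS for 24 h. Late glycoprotein C quantified by ELISA (mAb C11, HRP/OPD, 450 nm); EC50 from % inhibition.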

For assay [2], the system named is HCMV (strain AD169). The experiment in a line: Inhibition of HCMV replication, plaque reduction assay (PRA, Hs-68 cells). Conditions: read-out: PRA CMV EC50. In kind it is cell-based, Human Cytomegalovirus (HCMV). The essentials: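 Hs-68 monolayers (80–90% confluent) were infected with ~50 PFU HCMV AD169 for 2 h at 37°, then given compound in DMEM/5% inactivated FBS, refreshed after 4 days and kept 4 more days. Plaques were counted after formaldehyde fixation and crystal violet staining. EC50 derives from percent plaque reduction versus untreated wells.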

The mark [3] stands for this setting: Human alphaherpesvirus 1, BHK-21, Group 2 Table 1 entries.
[4] abbreviates: Human betaherpesvirus 5, AD169, Hs68, Group 2 Table 1 entries.
Where [5] appears, read: Human alphaherpesvirus 1, BHK-21, Group 1 Table 6 entries.
[6] abbreviates: Human betaherpesvirus 5, AD169, Hs68, Group 1 Table 6 entries.
Where [7] appears, read: Human alphaherpesvirus 1, BHK-21, Group 1 Table 5 entries.
The mark [8] stands for this setting: Human betaherpesvirus 5, AD169, Hs68, Group 1 Table 5 entries.

Regarding `CCCCN(CCCC)C(=O)Nc1ccc(-c2csc(N)n2)cc1` [Example 1, N-{4-(2-Amino-4-thiazolyl)phenyl}-N,N-dibutylurea], the half-maximal effective concentration (EC50) in assay [1] (setting [3]) came out at 0.8 µM; in assay [2] (setting [4]), 37 µM.
Turning to `Nc1nc(-c2ccc(NC(=O)[C@H]3CCCN3C(=O)c3ccccc3)cc2)cs1` [Example 9], the results for the EC50 in assay [1] (setting [5]) and in assay [2] (setting [6]) were 0.59 µM and greater than 88 µM, respectively.
Consider `CCCCN(CCCC)C(=O)C(=O)Nc1ccc(-c2csc(N)n2)cc1` [Example 1, N-{4-(2-Amino-4-thiazolyl)phenyl}-N',N'-dibutylethanediamide], for which the concentration for a half-maximal effect (EC50) in assay [1] (Human alphaherpesvirus 1, BHK-21, Group 2 Table 2 entries) is 2.9 µM; in assay [2] (Human betaherpesvirus 5, AD169, Hs68, Group 2 Table 2 entries), greater than 4 µM.
As for `CN(CCc1ccccn1)C(=O)Nc1ccc(-c2csc(N)n2)cc1` [Example 4], the concentration giving a half-maximal response (EC50) in assay [1] (setting [3]) is 1.4 µM; in assay [2] (setting [4]), greater than 144 µM.
As for `Nc1nc(-c2ccc(NC(=O)[C@H]3CCC(=O)N3CC3CCCCC3)cc2)cs1` [Example 3], the values for the concentration giving a half-maximal response (EC50) in assay [1] (setting [5]) and in assay [2] (setting [6]) were 2.1 µM and 45 µM, respectively.
Take `CN(C(=O)OC(C)(C)C)[C@@H](Cc1ccccc1)C(=O)Nc1ccc(-c2csc(N)n2)cc1` [Example 10]: the EC50 in assay [1] (setting [7]) worked out at 0.059 µM; in assay [2] (setting [8]), 12 µM.
The matching figures for `Nc1nc(-c2ccc(NC(=O)[C@H](Cc3ccccc3)NS(=O)(=O)N3CCOCC3)cc2)cs1` [Example 25]: 0.1 µM and 55 µM.
Take `Nc1nc(-c2ccc(NC(=O)[C@@H]3CCC(=O)N3Cc3ccccc3)cc2)cs1` [Example 2]: the EC50 in assay [1] (setting [5]) amounted to 2.6 µM; in assay [2] (setting [6]), 50 µM.
As for `CCCC(CCC)NC(=O)Nc1ccc(-c2csc(N)n2)cc1` [Example 11], the concentration giving a half-maximal response (EC50) worked out at 8 µM in assay [1] (setting [3]) and 13 µM in assay [2] (setting [4]).
For the compound `Nc1nc(-c2ccc(NC(=O)[C@@H]3CCCN3C(=O)C3CCCCC3)cc2)cs1` [Example 6], the figures for the EC50 in assay [1] (setting [5]) and in assay [2] (setting [6]) were 0.016 µM and 22 µM, respectively.
In the case of `CC(C)(C)NC(=O)Nc1ccc(-c2csc(N)n2)cc1` [Example 12], the concentration for a half-maximal effect (EC50) in assay [1] (setting [3]) was 4.4 µM; in assay [2] (setting [4]), greater than 32 µM.
`CC(C)(C)OC(=O)N1CCC[C@@H]1C(=O)Nc1ccc(-c2csc(N)n2)cc1` [Example 8]: the figures for the EC50 in assay [1] (setting [5]) and in assay [2] (setting [6]) were 1.8 µM and greater than 83 µM, respectively.
Regarding `CN(CCc1ccccn1)C(=O)Nc1ccc(-c2csc(NC(=O)OC(C)(C)C)n2)cc1` [Example 14], the EC50 in assay [1] (setting [3]) turned out to be 3.2 µM; in assay [2] (setting [4]), 2 µM.
Consider `Nc1nc(-c2ccc(NC(=O)[C@H](Cc3ccccc3)N(Cc3ccccc3)C(=O)C3CCCCC3)cc2)cs1` [Example 11], for which the EC50 amounted to 0.51 µM in assay [1] (setting [7]) and 8 µM in assay [2] (setting [8]).
As for `CCCCN(CCCC)C(=O)Nc1ccc(-c2csc(NC(=O)OC(C)(C)C)n2)cc1` [Example 15], the values for the 50% effective concentration (EC50) in assay [1] (setting [3]) and in assay [2] (setting [4]) were greater than 6 µM and 1.1 µM, respectively.
Regarding `CC(C)(C)CC(=O)N[C@@H](Cc1ccccc1)C(=O)Nc1ccc(-c2csc(N)n2)cc1` [Example 19], the EC50 in assay [1] (setting [7]) worked out at 0.04 µM; in assay [2] (setting [8]), 21 µM.
`Nc1nc(-c2ccc(NC(=O)[C@@H]3CCCN3C(=O)c3ccccc3)cc2)cs1` [Example 5]: the concentration giving a half-maximal response (EC50) in assay [1] (setting [5]) is 0.17 µM; in assay [2] (setting [6]) it was greater than 89 µM.
On to `Nc1nc(-c2ccc(NC(=O)[C@H]3CCCN3C(=O)C3CCCCC3)cc2)cs1` [Example 10], for which the 50% effective concentration (EC50) in assay [1] (setting [5]) came out at 0.025 µM; in assay [2] (setting [6]) it was 48 µM.
